Results from publication PMC11932207, “Regulating AMPA Receptors with Isoxazole-4-Carboxamide Derivatives: An Electrophysiological Study” (Journal of Xenobiotics, 2025).

Biological target: T1, GluA2 (Rattus norvegicus, UniProt P19491)
T1 construct: expressed in transfected cells; host or cells: HEK293T (HEK293) cells, transient co-transfection with a separate EGFP vector
Experiment: Whole-cell patch clamp recordings of homomeric GluA2 AMPA receptor currents and kinetics in transfected HEK293t cells
Assay type: cell-based
Details: 16 µM compound co-applied with agonist, HEK293t, −60 mV, pH 7.4, 22 °C, mean ± SD, n = 10
Source text: (§1) The AMPA receptor subunits utilized in this study were of the flip isoform. The flip variant of the GluA2 subunit was originally provided by S. F. Heinemann (Salk Institute, La Jolla, CA, USA) in a pBlueScript plasmid. This plasmid was subsequently sub-cloned into a pRK vector to enable expression in HEK293 cells, which were sourced from Sigma, Germany. Additionally, the unedited version of GluA2 (R607Qjj, flip isoform) and enhanced green fluorescent protein (EGFP), both contained in pRK5 vectors, were generously supplied by P. H. Seeburg (Max Planck Institute for Medical Research, Heidelberg, Germany). Chemical-mediated ways induced transfection. GluA2 homomers were expressed into HEK293 cells by the co-transfection of 1 μg GluA2 plasmid with an equal amount of GFP expression vectors (1:1 ratio) into the cells. In addition, co-transfection was conducted for heteromeric GluA2/3 subunits at a ratio of 1:1.2 for optimum expression. For post-transfection experiments, cells were plated in 10% fetal calf serum and antibiotics in DMEM in Petri plates. These cultures were maintained under carefully controlled conditions—37 °C and 5% CO2 within a humidified incubator. The selection of cells for recordings was based on fluorescence intensity. Highly GFP-positive cells were identified and isolated for further analysis, ensuring precise targeting of transfected populations.
(§2) Whole-cell patch clamp recordings were performed on HEK293t cells 36–48 h after transfection. Experiments were conducted at 22 °C, maintaining a holding potential of −60 mV, using an Integrated Patch Amplifier (IPA) from Sutter Instruments (Novato, CA, USA). Data acquisition was managed with SutterPatch Software v. 1.1.1 (Sutter Instruments), employing a sampling rate of 10 kHz and setting the low-pass filter at 2 kHz. […] The external solution contained 150 mM NaCl, 2.8 mM KCl, 0.5 mM MgCl2, 2 mM CaCl2, and 10 mM HEPES, adjusted to a pH of 7.4 using NaOH. The internal pipette solution was composed of 110 mM CsF, 30 mM CsCl, 4 mM NaCl, 0.5 mM CaCl2, 10 mM trypsin-EDTA solution B (0.25%), 0.05% EDTA, and 10 mM HEPES, with the pH adjusted to 7.2 using CsOH.
(§3) A dual-barrel glass pipette (theta tube) was employed for the rapid delivery of glutamate and other solutions. The theta tube was attached to a high-speed piezoelectric solution exchange system (Automate Scientific, Berkeley, CA, USA). To assess the efficiency of solution exchange, open-tip potentials were measured by applying solutions with different ionic compositions after the patch was expelled from the pipette. The time required for a 10–90% change in the solution was generally less than […].
(§4) Data analysis was performed with Igor Pro8.04 software (Wave Metrics, Inc., Portland, OR, USA). AMPA receptor deactivation and desensitization kinetics were measured by applying 10 mM glutamate for 1 ms and 500 ms, respectively. The currents from the AMPA receptor were fitted to a double-exponential model to quantify deactivation and desensitization time constants measured from the double-exponential fits. The weighted tau (τw) is calculated as: τw = (τf × af) + (τs × as), where τf and τs are the time constants of fast and slow exponential components and af and as represent their relative amplitudes.
(§5) Data are presented as the mean ± standard deviation (SD). The total number of HEK293 cells engaged was n = 10. The experimental groups were compared to the wild type using a one-way analysis of variance (ANOVA). Statistical significance was assessed using p values: p < 0.05 (*) indicated significance, p < 0.01 (**) indicated high significance, and p < 0.001 (***) indicated very high significance. The value “ns” indicates non-significance. Concentration–response relationships were modeled using the Hill equation with the resulting combined plots via GraphPad Prism software (version 6.01, GraphPad Software). The data presented are the means from 3–4 experimental replicates. […]

T1 sequence (P19491 22-883 isoform P19491-2 limits assumed): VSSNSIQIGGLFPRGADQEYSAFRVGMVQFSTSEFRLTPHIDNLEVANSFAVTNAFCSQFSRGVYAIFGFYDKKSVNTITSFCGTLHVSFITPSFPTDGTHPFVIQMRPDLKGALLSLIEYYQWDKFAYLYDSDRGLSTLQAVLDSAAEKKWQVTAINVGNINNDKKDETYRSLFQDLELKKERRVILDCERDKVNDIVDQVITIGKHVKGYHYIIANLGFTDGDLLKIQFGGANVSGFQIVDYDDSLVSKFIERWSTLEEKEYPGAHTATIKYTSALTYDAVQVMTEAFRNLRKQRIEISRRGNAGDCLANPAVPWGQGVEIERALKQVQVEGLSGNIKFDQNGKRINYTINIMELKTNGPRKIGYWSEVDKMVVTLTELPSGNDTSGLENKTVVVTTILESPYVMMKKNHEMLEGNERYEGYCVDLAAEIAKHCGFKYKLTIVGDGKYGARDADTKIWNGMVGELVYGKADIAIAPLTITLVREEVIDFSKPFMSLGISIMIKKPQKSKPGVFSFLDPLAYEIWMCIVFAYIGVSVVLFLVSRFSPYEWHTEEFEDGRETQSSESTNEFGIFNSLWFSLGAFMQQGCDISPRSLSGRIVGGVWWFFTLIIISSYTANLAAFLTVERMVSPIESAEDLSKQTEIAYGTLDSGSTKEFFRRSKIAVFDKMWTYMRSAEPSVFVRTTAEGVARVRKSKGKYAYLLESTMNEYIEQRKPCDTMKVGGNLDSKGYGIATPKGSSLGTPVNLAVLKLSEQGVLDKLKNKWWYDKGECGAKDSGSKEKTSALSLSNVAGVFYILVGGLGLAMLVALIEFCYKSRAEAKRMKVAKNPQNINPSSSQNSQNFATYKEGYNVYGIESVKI

| Amplitude (peak whole-cell current in presence of compound) [pA] | Compound |
| --- | --- |
| 160 ± 12 | COc1cc(NC(=O)c2c(-c3c(Cl)cccc3Cl)noc2C)c(OC)cc1Cl [CIC-2, N-(4-chloro-2,5-dimethoxyphenyl)-3-(2,6-dichlorophenyl)-5-methylisoxazole-4-carboxamide] |

Same assay, conditions: 16 µM compound, mean ± SD, n = 10

| A/AI (amplitude ratio, glutamate alone / with compound) | Compound |
| --- | --- |
| 7.79±0.42 | COc1cc(NC(=O)c2c(-c3c(Cl)cccc3Cl)noc2C)c(OC)cc1Cl [CIC-2, N-(4-chloro-2,5-dimethoxyphenyl)-3-(2,6-dichlorophenyl)-5-methylisoxazole-4-carboxamide] |

Same assay, conditions: 10 mM glutamate for 1 ms, with compound, mean ± SD

| t deact (weighted deactivation time constant) [ms] | Compound |
| --- | --- |
| 7.9 ± 0.3 | COc1cc(NC(=O)c2c(-c3c(Cl)cccc3Cl)noc2C)c(OC)cc1Cl [CIC-2, N-(4-chloro-2,5-dimethoxyphenyl)-3-(2,6-dichlorophenyl)-5-methylisoxazole-4-carboxamide] |

Same assay, conditions: 10 mM glutamate for 500 ms, with compound, mean ± SD

| Compound | t des (weighted desensitization time constant) [ms] |
| --- | --- |
| COc1cc(NC(=O)c2c(-c3c(Cl)cccc3Cl)noc2C)c(OC)cc1Cl [CIC-2, N-(4-chloro-2,5-dimethoxyphenyl)-3-(2,6-dichlorophenyl)-5-methylisoxazole-4-carboxamide] | 0.7 ± 0.1 |

Same assay, conditions: concentration–response fit, read-out: Log IC50 (converted)

| IC50 [µM] | Compound |
| --- | --- |
| 3.16 | COc1cc(NC(=O)c2c(-c3c(Cl)cccc3Cl)noc2C)c(OC)cc1Cl [CIC-2, N-(4-chloro-2,5-dimethoxyphenyl)-3-(2,6-dichlorophenyl)-5-methylisoxazole-4-carboxamide] |

Same assay, conditions: glutamate alone after the compound, mean ± SD, n = 10

| Amplitude, applying glutamate alone after compound [pA] | Compound |
| --- | --- |
| 1213±94 | COc1cc(NC(=O)c2c(-c3c(Cl)cccc3Cl)noc2C)c(OC)cc1Cl [CIC-2, N-(4-chloro-2,5-dimethoxyphenyl)-3-(2,6-dichlorophenyl)-5-methylisoxazole-4-carboxamide] |

Same assay, conditions: inhibition of whole-cell peak current, concentration–response, Hill fit, read-out: IC50

| IC50 [µM] | Compound |
| --- | --- |
| 3.18 | COc1cc(NC(=O)c2c(-c3c(Cl)cccc3Cl)noc2C)c(OC)cc1Cl [CIC-2, N-(4-chloro-2,5-dimethoxyphenyl)-3-(2,6-dichlorophenyl)-5-methylisoxazole-4-carboxamide] |

Same assay, conditions: versus control

| Increase of deactivation time constant (τdeac) | Compound |
| --- | --- |
| approximately 4 fold | COc1cc(NC(=O)c2c(-c3c(Cl)cccc3Cl)noc2C)c(OC)cc1Cl [CIC-2, N-(4-chloro-2,5-dimethoxyphenyl)-3-(2,6-dichlorophenyl)-5-methylisoxazole-4-carboxamide] |

Same assay, conditions: versus glutamate alone, one-way ANOVA

| Compound | Effect on desensitization kinetics (τdes), in words |
| --- | --- |
| COc1cc(NC(=O)c2c(-c3c(Cl)cccc3Cl)noc2C)c(OC)cc1Cl [CIC-2, N-(4-chloro-2,5-dimethoxyphenyl)-3-(2,6-dichlorophenyl)-5-methylisoxazole-4-carboxamide] | accelerating desensitization |

Biological target: T2, GluN1a/2B (Homo sapiens, UniProt Q05586+Q13224)
T2 construct: expressed in transfected cells; host or cells: HEK293t cells
Experiment: Selectivity: whole-cell normalized peak current of NMDA receptor GluN1a/2B
Assay type: cell-based
Details: 16 µM compound, HEK293t, −60 mV
Method: (§6) To evaluate the selectivity of CIC-1 and CIC-2 derivatives, their effects on GluN1a/2A and GluN1a/2B of the NMDA receptors were tested. The normalized peak current responses of the subunits alone and with CIC-1 and CIC-2 were determined (Figure 4).
(§7) Figure 4 The inhibitory actions of Isoxazole-4-carboxamide derivatives on the whole-cell currents mediated by GluA2, GluA2/3 AMPA receptor subtypes and GluN1a/2A, […] receptor subtypes. (a) represents data for CIC-1 and CIC-2 compounds. AMPA- and NMDA-induced currents (black bars) are then compared to currents recorded in the presence of 16 µM CIC compounds (white bars). Panels (b–e) show representative traces of whole-cell current responses to a 1 ms administration of 10 mM glutamate for the subunits. The traces show normalized responses for glutamate alone (black) and glutamate in combination with CIC compounds (color-coded). The recording was performed in HEK293t cells at −60 mV, pH 7.4, and 22 °C. Data present mean ± SD from 3–4 different experiments. *** p < 0.001; and “ns” indicates not significant.

T2 sequence (Q13224 27-1484, other chains not shown): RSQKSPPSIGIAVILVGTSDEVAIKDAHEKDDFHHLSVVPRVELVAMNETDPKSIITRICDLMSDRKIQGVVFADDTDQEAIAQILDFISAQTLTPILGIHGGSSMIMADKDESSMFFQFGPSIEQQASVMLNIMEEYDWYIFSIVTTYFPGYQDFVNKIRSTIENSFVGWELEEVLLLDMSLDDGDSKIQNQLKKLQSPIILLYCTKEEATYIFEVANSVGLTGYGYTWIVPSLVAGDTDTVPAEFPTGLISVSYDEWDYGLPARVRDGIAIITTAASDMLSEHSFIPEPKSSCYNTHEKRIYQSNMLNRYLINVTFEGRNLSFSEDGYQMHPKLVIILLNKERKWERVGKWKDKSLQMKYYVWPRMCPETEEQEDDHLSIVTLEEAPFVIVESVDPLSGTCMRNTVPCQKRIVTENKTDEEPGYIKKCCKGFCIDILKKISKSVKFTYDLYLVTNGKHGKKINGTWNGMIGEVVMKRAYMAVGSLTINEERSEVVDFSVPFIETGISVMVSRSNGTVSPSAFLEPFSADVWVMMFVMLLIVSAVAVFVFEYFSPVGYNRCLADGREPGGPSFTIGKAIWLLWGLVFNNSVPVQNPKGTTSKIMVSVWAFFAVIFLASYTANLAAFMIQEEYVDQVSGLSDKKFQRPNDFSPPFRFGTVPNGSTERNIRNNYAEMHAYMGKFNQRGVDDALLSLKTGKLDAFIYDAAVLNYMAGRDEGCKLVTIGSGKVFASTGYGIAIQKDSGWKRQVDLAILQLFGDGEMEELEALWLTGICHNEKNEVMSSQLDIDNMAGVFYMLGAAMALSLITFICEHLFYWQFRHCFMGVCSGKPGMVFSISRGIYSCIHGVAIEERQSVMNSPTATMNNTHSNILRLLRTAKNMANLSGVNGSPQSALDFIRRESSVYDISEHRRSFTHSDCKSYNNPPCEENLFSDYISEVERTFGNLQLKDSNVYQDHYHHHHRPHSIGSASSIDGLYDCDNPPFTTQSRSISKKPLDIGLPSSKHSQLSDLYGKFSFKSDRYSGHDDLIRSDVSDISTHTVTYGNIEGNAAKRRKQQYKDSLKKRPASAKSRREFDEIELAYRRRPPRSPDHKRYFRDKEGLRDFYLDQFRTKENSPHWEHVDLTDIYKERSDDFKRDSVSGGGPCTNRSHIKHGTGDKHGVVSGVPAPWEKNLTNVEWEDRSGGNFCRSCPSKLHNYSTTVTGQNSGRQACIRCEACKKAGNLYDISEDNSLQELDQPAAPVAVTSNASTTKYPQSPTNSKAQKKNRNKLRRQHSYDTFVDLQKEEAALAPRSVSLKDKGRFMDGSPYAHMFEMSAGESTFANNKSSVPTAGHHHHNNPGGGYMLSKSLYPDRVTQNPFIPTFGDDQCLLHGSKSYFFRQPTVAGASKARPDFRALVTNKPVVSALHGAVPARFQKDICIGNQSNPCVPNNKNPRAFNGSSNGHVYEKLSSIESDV

| Effect on normalized peak current | Compound |
| --- | --- |
| statistically not significant | COc1cc(NC(=O)c2c(-c3c(Cl)cccc3Cl)noc2C)c(OC)cc1Cl [CIC-2, N-(4-chloro-2,5-dimethoxyphenyl)-3-(2,6-dichlorophenyl)-5-methylisoxazole-4-carboxamide] |

Biological target: T3, GluN1a/2A (Homo sapiens, UniProt Q05586+Q12879)
T3 construct: expressed in transfected cells; host or cells: HEK293t cells
Experiment: Selectivity: whole-cell normalized peak current of NMDA receptor GluN1a/2A
Assay type: cell-based
Details: 16 µM compound, HEK293t, −60 mV
Method: as §6, §7

T3 sequence (Q12879 23-1464, other chains not shown): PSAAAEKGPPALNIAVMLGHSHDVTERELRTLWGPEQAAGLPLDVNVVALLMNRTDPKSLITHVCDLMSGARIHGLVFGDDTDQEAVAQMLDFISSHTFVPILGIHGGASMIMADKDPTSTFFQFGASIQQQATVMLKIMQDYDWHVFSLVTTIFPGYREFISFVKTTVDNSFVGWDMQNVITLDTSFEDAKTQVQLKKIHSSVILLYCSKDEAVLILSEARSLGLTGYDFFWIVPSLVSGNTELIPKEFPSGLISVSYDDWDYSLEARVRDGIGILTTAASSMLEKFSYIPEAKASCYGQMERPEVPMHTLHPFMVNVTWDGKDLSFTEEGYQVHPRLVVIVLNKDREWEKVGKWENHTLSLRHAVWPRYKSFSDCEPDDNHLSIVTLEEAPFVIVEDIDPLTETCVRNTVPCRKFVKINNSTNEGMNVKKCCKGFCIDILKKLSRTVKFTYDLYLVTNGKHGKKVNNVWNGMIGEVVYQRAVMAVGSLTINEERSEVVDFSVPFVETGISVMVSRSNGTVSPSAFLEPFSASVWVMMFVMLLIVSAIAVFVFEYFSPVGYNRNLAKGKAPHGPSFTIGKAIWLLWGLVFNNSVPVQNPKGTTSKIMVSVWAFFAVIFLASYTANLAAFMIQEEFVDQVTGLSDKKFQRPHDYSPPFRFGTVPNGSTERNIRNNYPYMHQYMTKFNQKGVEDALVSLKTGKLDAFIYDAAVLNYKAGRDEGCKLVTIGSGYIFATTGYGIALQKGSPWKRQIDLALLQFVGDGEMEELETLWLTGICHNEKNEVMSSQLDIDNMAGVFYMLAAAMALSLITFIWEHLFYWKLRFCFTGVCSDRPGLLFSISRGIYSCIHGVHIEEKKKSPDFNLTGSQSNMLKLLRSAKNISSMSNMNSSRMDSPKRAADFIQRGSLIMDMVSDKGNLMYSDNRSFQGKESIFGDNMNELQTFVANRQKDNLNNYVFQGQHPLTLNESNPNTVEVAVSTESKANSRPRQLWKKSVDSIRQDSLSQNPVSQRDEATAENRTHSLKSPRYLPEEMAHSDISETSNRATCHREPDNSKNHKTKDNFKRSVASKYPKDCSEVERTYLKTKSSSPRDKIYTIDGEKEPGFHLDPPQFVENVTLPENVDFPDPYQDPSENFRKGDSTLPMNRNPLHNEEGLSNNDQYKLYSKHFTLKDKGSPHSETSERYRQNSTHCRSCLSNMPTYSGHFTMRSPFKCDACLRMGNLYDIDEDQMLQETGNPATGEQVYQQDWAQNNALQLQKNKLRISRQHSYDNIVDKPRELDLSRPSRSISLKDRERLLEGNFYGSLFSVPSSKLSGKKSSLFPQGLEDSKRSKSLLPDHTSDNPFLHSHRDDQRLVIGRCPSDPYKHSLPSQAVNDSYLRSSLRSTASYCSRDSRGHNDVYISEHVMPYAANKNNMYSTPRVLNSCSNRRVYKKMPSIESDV

| Effect on normalized peak current | Compound |
| --- | --- |
| statistically not significant | COc1cc(NC(=O)c2c(-c3c(Cl)cccc3Cl)noc2C)c(OC)cc1Cl [CIC-2, N-(4-chloro-2,5-dimethoxyphenyl)-3-(2,6-dichlorophenyl)-5-methylisoxazole-4-carboxamide] |

Biological target: T4, GluA2/3 (UniProt P19491+P42263)
T4 construct: expressed in transfected cells; host or cells: HEK293T (HEK293) cells, transient co-transfection
Experiment: Whole-cell patch clamp recordings of heteromeric GluA2/3 AMPA receptor currents and kinetics in transfected HEK293t cells
Assay type: cell-based
Details: 16 µM compound co-applied with agonist, HEK293t, −60 mV, pH 7.4, 22 °C, mean ± SD, n = 10
Source text: as §1, §2, §3, §4, §5

T4 sequence (P19491 22-883 isoform P19491-2 limits assumed): as the sequence (P19491 22-883 isoform P19491-2 limits assumed) above
T4 sequence (P42263 29-894 isoform P42263-2 limits assumed): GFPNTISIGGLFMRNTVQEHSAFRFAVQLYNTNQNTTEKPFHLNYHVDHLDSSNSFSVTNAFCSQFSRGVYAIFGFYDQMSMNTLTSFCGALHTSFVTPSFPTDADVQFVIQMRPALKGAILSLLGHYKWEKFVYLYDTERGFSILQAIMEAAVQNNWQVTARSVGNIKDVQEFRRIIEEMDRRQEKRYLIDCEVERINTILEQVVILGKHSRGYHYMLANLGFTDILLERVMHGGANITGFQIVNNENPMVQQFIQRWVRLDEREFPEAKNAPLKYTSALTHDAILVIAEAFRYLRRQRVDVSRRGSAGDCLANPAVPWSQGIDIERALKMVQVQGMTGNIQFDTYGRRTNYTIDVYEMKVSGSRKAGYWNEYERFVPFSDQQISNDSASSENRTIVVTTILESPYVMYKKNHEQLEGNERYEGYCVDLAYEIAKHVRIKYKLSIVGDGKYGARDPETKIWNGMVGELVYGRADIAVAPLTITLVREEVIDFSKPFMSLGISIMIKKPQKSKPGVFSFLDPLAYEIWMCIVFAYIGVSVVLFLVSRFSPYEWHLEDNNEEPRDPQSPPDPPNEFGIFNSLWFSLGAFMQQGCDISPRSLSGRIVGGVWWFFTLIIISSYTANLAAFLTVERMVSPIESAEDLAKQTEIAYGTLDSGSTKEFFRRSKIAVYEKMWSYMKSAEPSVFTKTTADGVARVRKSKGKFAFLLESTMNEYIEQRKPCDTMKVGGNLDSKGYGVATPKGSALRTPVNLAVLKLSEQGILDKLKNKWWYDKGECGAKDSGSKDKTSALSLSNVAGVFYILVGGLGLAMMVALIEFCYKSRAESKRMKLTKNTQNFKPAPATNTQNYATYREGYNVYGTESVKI

| Amplitude (peak whole-cell current in presence of compound) [pA] | Compound |
| --- | --- |
| 75 ± 6 | COc1cc(NC(=O)c2c(-c3c(Cl)cccc3Cl)noc2C)c(OC)cc1Cl [CIC-2, N-(4-chloro-2,5-dimethoxyphenyl)-3-(2,6-dichlorophenyl)-5-methylisoxazole-4-carboxamide] |

Same assay, conditions: 16 µM compound, mean ± SD, n = 10

| A/AI (amplitude ratio, glutamate alone / with compound) | Compound |
| --- | --- |
| 7.65±0.45 | COc1cc(NC(=O)c2c(-c3c(Cl)cccc3Cl)noc2C)c(OC)cc1Cl [CIC-2, N-(4-chloro-2,5-dimethoxyphenyl)-3-(2,6-dichlorophenyl)-5-methylisoxazole-4-carboxamide] |

Same assay, conditions: 10 mM glutamate for 1 ms, with compound, mean ± SD

| t deact (weighted deactivation time constant) [ms] | Compound |
| --- | --- |
| 7.8 ± 0.4 | COc1cc(NC(=O)c2c(-c3c(Cl)cccc3Cl)noc2C)c(OC)cc1Cl [CIC-2, N-(4-chloro-2,5-dimethoxyphenyl)-3-(2,6-dichlorophenyl)-5-methylisoxazole-4-carboxamide] |

Same assay, conditions: 10 mM glutamate for 500 ms, with compound, mean ± SD

| Compound | t des (weighted desensitization time constant) [ms] |
| --- | --- |
| COc1cc(NC(=O)c2c(-c3c(Cl)cccc3Cl)noc2C)c(OC)cc1Cl [CIC-2, N-(4-chloro-2,5-dimethoxyphenyl)-3-(2,6-dichlorophenyl)-5-methylisoxazole-4-carboxamide] | 0.8 ± 0.1 |

Same assay, conditions: concentration–response fit, read-out: Log IC50 (converted)

| IC50 [µM] | Compound |
| --- | --- |
| 3.31 | COc1cc(NC(=O)c2c(-c3c(Cl)cccc3Cl)noc2C)c(OC)cc1Cl [CIC-2, N-(4-chloro-2,5-dimethoxyphenyl)-3-(2,6-dichlorophenyl)-5-methylisoxazole-4-carboxamide] |

Same assay, conditions: glutamate alone after the compound, mean ± SD, n = 10

| Amplitude, applying glutamate alone after compound [pA] | Compound |
| --- | --- |
| 552±44 | COc1cc(NC(=O)c2c(-c3c(Cl)cccc3Cl)noc2C)c(OC)cc1Cl [CIC-2, N-(4-chloro-2,5-dimethoxyphenyl)-3-(2,6-dichlorophenyl)-5-methylisoxazole-4-carboxamide] |

Same assay, conditions: inhibition of whole-cell peak current, concentration–response, Hill fit, read-out: IC50

| IC50 [µM] | Compound |
| --- | --- |
| 3.32 | COc1cc(NC(=O)c2c(-c3c(Cl)cccc3Cl)noc2C)c(OC)cc1Cl [CIC-2, N-(4-chloro-2,5-dimethoxyphenyl)-3-(2,6-dichlorophenyl)-5-methylisoxazole-4-carboxamide] |

Same assay, conditions: versus control

| Increase of deactivation time constant (τdeac) | Compound |
| --- | --- |
| approximately 4 fold | COc1cc(NC(=O)c2c(-c3c(Cl)cccc3Cl)noc2C)c(OC)cc1Cl [CIC-2, N-(4-chloro-2,5-dimethoxyphenyl)-3-(2,6-dichlorophenyl)-5-methylisoxazole-4-carboxamide] |

Same assay, conditions: versus glutamate alone, one-way ANOVA

| Compound | Effect on desensitization kinetics (τdes), in words |
| --- | --- |
| COc1cc(NC(=O)c2c(-c3c(Cl)cccc3Cl)noc2C)c(OC)cc1Cl [CIC-2, N-(4-chloro-2,5-dimethoxyphenyl)-3-(2,6-dichlorophenyl)-5-methylisoxazole-4-carboxamide] | accelerating desensitization |
